Laboratory results taken from article PMC12369603, “Functional characterization of antennae-enriched chemosensory protein 4 in emerald ash borer, Agrilus planipennis” (PeerJ, 2025).
Several values for one entry are separate records, joined by “and”; a condition that tells them apart may be missing. Equal entries are not always repeated. Where two headings read alike, the source gives them in different places.

Target: recombinant AplaCSP4 (Agrilus planipennis chemosensory protein 4) (Agrilus planipennis, UniProt A0A1W4XLL0)
Experiment: biochemical
Format: binding
Settings: for Kd: read-out: K D ±SE (dissociation constant); for binding to AplaCSP4 (in words): discussion of fluorescence competitive binding results; for Competitive binding capability(%) / activity at 2 µM / activity at 4 µM / activity at 6 µM / activity at 8 µM / activity at 10 µM / activity at 12 µM: three replicate columns, 100 at 0 μM
Protocol: Specifically, the binding affinities of AplaCSP4 for 43 volatile organic compounds were determined using F-380 fluorescence spectrophotometer (Tianjin, China) with a 10 nm slits and a 1 cm light path. These 43 substances are common green leaf volatiles, among which 16 volatiles originate from the ash tree. […]

[1] = AplaCSP4 and 1-NPN each 2 µM, 50 mM Tris–HCl pH 7.4, KD = IC50/(1+[1-NPN]/K1-NPN), mean of three experiments
[2] = AplaCSP4 and 1-NPN each 2 µM, ligands with minimal binding single experiment, read-out: K D ±SE, “–” = no binding (IC50 >16 μM, KD not calculated)
[3] = ligand concentration 2 μM, 2 µM
[4] = ligand concentration 4 μM, 4 µM
[5] = ligand concentration 6 μM, 6 µM
[6] = ligand concentration 8 μM, 8 µM
[7] = ligand concentration 10 μM, 10 µM
[8] = ligand concentration 12 μM, 12 µM
[9] = pH 7.4, read-out: Competitive binding capability(%), ligand concentration 2 μM
[10] = pH 7.4, read-out: Competitive binding capability(%), ligand concentration 4 μM
[11] = pH 7.4, read-out: Competitive binding capability(%), ligand concentration 6 μM
[12] = pH 7.4, read-out: Competitive binding capability(%), ligand concentration 8 μM
[13] = pH 7.4, read-out: Competitive binding capability(%), ligand concentration 10 μM
[14] = pH 7.4, read-out: Competitive binding capability(%), ligand concentration 12 μM

recombinant AplaCSP4 (Agrilus planipennis chemosensory protein 4), sequence (A0A1W4XLL0 entry or part of it): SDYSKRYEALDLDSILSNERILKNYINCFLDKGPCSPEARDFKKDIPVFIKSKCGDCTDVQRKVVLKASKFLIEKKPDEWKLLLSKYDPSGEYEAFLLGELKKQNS

`C=C1CC/C=C(\C)CC[C@@H]2[C@@H]1CC2(C)C` [β-Caryophyllene] gave an IC50 of over 16 µM.
`C=CC(C)=CCC=C(C)C` [Ocimene] was tested, and the Kd [1] was 10.4 ± 1.11 µM, the “binding to AplaCSP4 (in words)” value was “binding capabilities” and the “Competitive binding capability(%)” value (ligand concentration 2 μM) was 93.4067% and 90.0634% and 92.7212%. For the same compound, the “Competitive binding capability(%)” value (ligand concentration 4 μM) was 88.4911% and 81.8854% and 85.2152%, the “Competitive binding capability(%)” value (ligand concentration 6 μM) was 82.5386% and 75.7215% and 76.2043% and the “Competitive binding capability(%)” value (ligand concentration 8 μM) was 75.2984% and 68.1994% and 63.8599%. For the same compound, the “Competitive binding capability(%)” value (ligand concentration 10 μM) was 69.6898% and 60.3453% and 57.9099% and the “Competitive binding capability(%)” value (ligand concentration 12 μM) was 63.4481% and 55.0655% and 52.0519%.
Work on `COC(=O)c1ccccc1O` [Methyl salicylate] yielded an IC50 of over 16 µM.
`CC/C=C\CCOC(=O)CC(C)C` [cis-3-Hexenyl isovalerate] gave an IC50 [2] of over 16 µM.
`CCCCCCCC=O` [Octanal] gave an IC50 [2] of over 16 µM.
`C=CC(C)(O)CCC=C(C)C` (centres unmarked) [Linalool] gave an IC50 of over 16 µM.
`CC/C=C\CCO` [cis-3-Hexen-1-ol] showed an IC50 of over 16 µM.
`CC(=O)O[C@@H]1C[C@H]2CC[C@]1(C)C2(C)C` (racemic) [Isobornyl acetate] was tested, and the IC50 was over 16 µM.
With `CC/C=C\CCOC(=O)c1ccccc1` [cis-3-Hexenyl benzoate] the “Competitive binding capability(%)” value [3] was 79.0652% and 72.7217%, the “Competitive binding capability(%)” value [4] was 62.6633% and 59.3339% and the “Competitive binding capability(%)” value [5] was 52.3441% and 49.0753%. For the same compound, the “Competitive binding capability(%)” value [6] was 45.5407% and 42.369%, the “Competitive binding capability(%)” value [7] was 38.572% and 36.9717% and the “Competitive binding capability(%)” value [8] was 34.5851% and 32.8537%. For the same compound, the activity at 2 µM (pH 7.4, ligand concentration 2 μM, read-out: Competitive binding capability(%)) was 76.1%, the activity at 4 µM (pH 7.4, ligand concentration 4 μM, read-out: Competitive binding capability(%)) was 61.8% and the activity at 6 µM (pH 7.4, ligand concentration 6 μM, read-out: Competitive binding capability(%)) was 51.7%. It also gave an activity at 8 µM (pH 7.4, ligand concentration 8 μM, read-out: Competitive binding capability(%)) of 44.5%, an activity at 10 µM (pH 7.4, ligand concentration 10 μM, read-out: Competitive binding capability(%)) of 39.2% and an activity at 12 µM (pH 7.4, ligand concentration 12 μM, read-out: Competitive binding capability(%)) of 35%. For the same compound, the Kd was 4.29 ± 0.18 µM.
Work on `CCCCCCOC(C)=O` [Hexyl acetate] yielded an IC50 [2] of over 16 µM.
In the case of `CCCCCCCCO` [1-Octanol], the IC50 [2] is reported as over 16 µM.
`N#CCc1ccccc1` [Phenylacetonitrile] showed an IC50 of over 16 µM.
Work on `COC(=O)c1ccccc1` [Methyl benzoate] yielded an IC50 of over 16 µM.
Work on `CCCCCCCCCC=O` [Decanal] yielded an IC50 [2] of over 16 µM.
`C=C(C)C1CC=C(C)CC1` (single isomer, unassigned; (+)) [(+)-Limonene] was tested, and the Kd [1] was 11.3 ± 0.69 µM, the “binding to AplaCSP4 (in words)” value was “binding capabilities” and the “Competitive binding capability(%)” value (ligand concentration 2 μM) was 97.2535% and 97.4709% and 95.8953%. For the same compound, the “Competitive binding capability(%)” value (ligand concentration 4 μM) was 90.8935% and 90.3604% and 88.2267%, the “Competitive binding capability(%)” value (ligand concentration 6 μM) was 83.0381% and 84.401% and 80.748% and the “Competitive binding capability(%)” value (ligand concentration 8 μM) was 77.7418% and 78.3215% and 71.3561%. The “Competitive binding capability(%)” value (ligand concentration 10 μM) was 70.6734% and 71.72% and 63.3296% and the “Competitive binding capability(%)” value (ligand concentration 12 μM) was 65.4243% and 64.4472% and 56.5332%.
In the case of `CCCCCCCCCCCC` [Dodecane], the “binding to AplaCSP4 (in words)” value is reported as “binding capabilities”, the “Competitive binding capability(%)” value [3] is reported as 62.371% and 59.0946% and the “Competitive binding capability(%)” value [4] is reported as 40.5144% and 36.3519%. The “Competitive binding capability(%)” value [5] was 30.0968% and 29.949%, the “Competitive binding capability(%)” value [6] was 26.7121% and 28.4784% and the “Competitive binding capability(%)” value [7] was 26.2641% and 27.4122%. For the same compound, the “Competitive binding capability(%)” value [8] was 25.5826% and 26.3545%, the activity at 2 µM [9] was 63.1% and the activity at 4 µM [10] was 37.5%. For the same compound, the activity at 6 µM [11] was 29.7%, the activity at 8 µM [12] was 27.4% and the activity at 10 µM [13] was 26.7%. For the same compound, the activity at 12 µM [14] was 25.8% and the Kd was 1.93 ± 0.09 µM.
Work on `CCc1ccc(C(C)=O)cc1` [4′-Ethylacetophenone] yielded an IC50 of over 16 µM.
`CCCCCCCCCC` [Decane] was tested, and the “Competitive binding capability(%)” value [3] was 60.8138% and 70.0208%, the “Competitive binding capability(%)” value [4] was 45.6655% and 49.8433% and the “Competitive binding capability(%)” value [5] was 42.3979% and 46.6766%. The “Competitive binding capability(%)” value [6] was 41.2683% and 43.4013%, the “Competitive binding capability(%)” value [7] was 39.2004% and 42.0377% and the “Competitive binding capability(%)” value [8] was 38.5773% and 39.0548%. For the same compound, the activity at 2 µM [9] was 57.1%, the activity at 4 µM [10] was 45.8% and the activity at 6 µM [11] was 42.4%. The activity at 8 µM [12] was 40.4%, the activity at 10 µM [13] was 39.9% and the activity at 12 µM [14] was 38.2%. It also gave a Kd of 2.87 ± 0.44 µM.
`O=Cc1ccccc1` [Benzaldehyde] was tested, and the IC50 was over 16 µM.
With `CC/C=C\CCOC(C)=O` [cis-3-Hexenyl acetate] the IC50 [2] was over 16 µM.
